Experimental data: patent US6197760A (priority 2000, dated 2001)

Tests used:
[1] = clinical; cited from earlier work
[2] = system: M5076 sarcoma; settings: historical; cited from earlier work
[3] = system: Lewis lung carcinoma; settings: mouse, in vivo
[4] = system: MCF-7 mammary tumor xenograft; parameters: species or system human; settings: in vivo, sc
[5] = system: L1210/CPA leukemia; assay type: in vivo, male CDF1 mice; settings: L1210/CPA, i.p. day 2 only at MTD (CPA 200, Ifos 431, IPM 100 mg/kg)
[6] = in vivo; settings: mouse, ip
[7] = system: P388 leukemia; settings: historical; cited from earlier work
[8] = system: LOX-IMVI melanoma; assay: Evaluation against i.p. implanted LOX-IMVI melanoma (Table 6); assay type: in vivo, human
Description: BM-IPM was evaluated vs. human LOX-IMVI melanoma and produced a 52% increase in life span (ILS) and 20% survivors, while IPM yielded an identical ILS with no survivors.
Evaluation of BM-IPM Against I.P. Implanted Human
Treatment: IP: Q1DX1 (1) Therapeutic Response

[9] = in vivo; settings: mouse, ip; remark: listed apart in the source
[10] = system: mammary tumor 16/C; parameters: species or system murine; settings: mouse, in vivo
[11] = system: MX-1 mammary tumor xenograft; assay type: in vivo, human; settings: experiment analogous to MCF-7
[12] = system: L1210/0 leukemia; settings: L1210/0, i.p. day 2 only at MTD (CPA 200, Ifos 431, IPM 100 mg/kg)
[13] = metabolite of CPA; cited from earlier work
[14] = system: mixedfunction oxidase activities (cytochrome P-450, aryl hydrocarbon hydroxylase, aminopyrinedemethylase); glutathione; settings: cited from earlier work

## O=P1(N(CCCl)CCCl)NCCCO1 (centres unmarked) [CPA, cyclophosphamide]
[1]
  toxicity in patients: hemorrhagic cystitis
[2]
  comparative activity vs. M5076 sarcoma, historically: comparably active to CM-IPM
[3]
  comparative activity against Lewis lung carcinoma: equivalent activity at equal host toxicity
  cure rate: 50-70%
[3]; ip
  % ILS (increase in life span, excluding survivors): 68
  Log kill total (Log10 cell kill): > 6.8
  Tumour-free survivors: 5/10
[4]
  Days delay (T-C): 6.7
[5]
  % ILS (dying mice only): +57%
  Net log10 reduction in tumor burden after therapy: 4 log10
[5]; tumor burden at start 6.0 × 10^7 cells
  Day 60 survivors/total: 0/10
[6]
  MTD: 200 mg/kg
[7]
  comparative activity vs. P388 leukemia, historically: comparably active to CM-IPM
[8]; IP, Q1DX1 (1), 40 mg/kg/dose
  55-Day Surv./Total: 0/5
  % ILS: +121%
  Median Day of Death: 42.0 days
[8]; Table 6
  increase in life span (ILS): 121%
  survivors: no survivors
[9]
  MTD: 200 mg/kg
[10]
  tumor response / comparative activity vs. 16/C: none of which caused tumor regression
[11]
  activity vs. MX-1: high activity
[12]
  % ILS (dying mice only): +107%
  Net log10 reduction in tumor burden after therapy: 7 log10
[12]; tumor burden at start 8.5 × 10^8 cells
  Day 60 survivors/total: 0/10

## C=CC=O [acrolein]
[13]
  teratogenicity: teratogenic
[14]
  liver toxicity: glutathione depletion and destruction of mixedfunction oxidase activities
